# Reference: patent US10172911B2, “Methods of modulating erythropoiesis with arginine vasopressin receptor 1B molecules” (The United States of America, as represented by the …, priority 2013, dated 2019)
# Entries after “also recorded” stand apart in the source; their conditions may differ.
# How the values were obtained:
# β-catenin = β-catenin immunostaining of AVP-stimulated human CD34+ cells; format: cell-based; settings: 10^−10 M, 24 hours
# From the text: FIGS. 3A-3D show studies of signaling pathways. FIG. 3A provides results from CFU assays showing E-CFU and GM-CFU numbers/1000 plated cells. […] Error bars represent means±SD * p<0.05, ** p<0.01, unpaired t-test. […] The cells were then fixed with 4% paraformaldehyde and washed before immunostaining. Following permeabilization with Triton-X 100 a primary antibody to β-catenin was applied followed by a fluorescent secondary antibody. The β-catenin translocated to the nucleus at the 10^−10 AVP concentration confirming the activation of the Wnt pathway. Scale: 10 μm. […] Using Q-PCR to detect changes in genes that reflect Wnt pathway activation, increases in CCND1, MYC and LEF1 in response to AVP stimulation were observed.
# FIGS. 8A-8C show AVP stimulation results in the nuclear translocation of β-catenin affecting the Wnt pathway. […] The cells were then fixed with 4% paraformaldehyde and washed before immunostaining. Following permeabilization with Triton-X 100, a primary antibody to β-catenin was applied followed by a fluorescent secondary antibody. The β-catenin translocated to the nucleus at the 10^−10 M AVP concentration confirming the activation of the Wnt pathway. Scale: 10 μm. FIG. 8B CFU assays showing E-CFU and GM-CFU numbers/1000 plated cells. […] Error bars represent means±SD * p<0.05, ** p<0.01, unpaired t-test.
# C57BL6 male mice = assay: Hemorrhage anemia model, Alzet pump delivery; format: in vivo, mouse
# Method: Mice were anesthetized with isoflurane. Twenty five percent of their calculated circulating blood volume (calculated based on Animal Research Advisory Committee Guidelines for survival bleeding of mice and rats, OACU, NIH) was drained from the retro-orbital plexus.
# The reticulocyte ratio of peripheral blood was determined using the Retic-Count flow kit (BD Biosciences) according to the manufacturer's instructions. Hematocrit values were measured with an automated analyzer and microhematocrit tubes. The reticulocyte index was calculated as follows: reticulocyte ratio %/total gated cells×hematocrit/45.
# To infuse vasopressin into the mice, AVP filled ALZET pumps were implanted subcutaneously on the dorsal aspect of the neck (5 ug/day, Alzet 1007D—7 days, 2002-14 days). Vasopressin was also given immediately and 6 hours later as a bolus injection (100 μg/kg). Alzet pumps were inserted subcutaneously. The dimensions and pump specification are: ALZET, (DURECT Corporation, Cupertino, Calif., USA) mini-osmotic pump models 1007D or 2002. The pumps deliver 0.5 μl/h of the desired substance for a for 2-week period. In some cases, erythropoietin antibody (100 μg/mice) was given before anesthesia with the corresponding control antibody. […] Following the initial hemorrhage blood samples were taken at 2, 4 and in some cases 6 days later to determine hematocrit and corrected reticulocyte values.
# mice = assay: Peripheral blood values following EPO vs. AVP injections in hemorrhage; format: in vivo, mouse
# Method: AVP (100 μg/kg bodyweight) or EPOetin alfa (50 U/bodyweight, EPOgen) was administered intra-peritoneally to mice, immediately following hemorrhage. […] Hematocrit and reticulocyte counts were measured at different time points.
# human CD34^+ cells = assay: BrdU cell proliferation assay, human CD34+ cells; format: cell-based
# Method: Sorted mouse bone marrow LSK cells (10000 cells/well) were plated in a 96 well plate in Stemspan serum free expansion medium ([…] Technologies, Vancouver, Canada) with Pen/Strep, and the following hematopoietic factors: 100 ng/ml TPO, 50 ng/ml FLT3L, 50 ng/ml IL-3 and SCF 100 ng/ml (Peprotech, Rocky Hill, N.J.). Cells were treated with […] (Sigma-Aldrich, St. Louis, Mo.). When using human CD34^+ cells (5000 cells/well), human SCF, TPO, FLT3L and G-CSF (Peprotech, each at 50-100 ng/ml) were added to the Stemspan medium. Cells were treated with 10^−8M-10^−14M AVP. After 24 hours, BrdU at a 1:1000 concentration was added to the cultures and incorporation of BrdU was measured using the Cell Proliferation ELISA BrdU kit (Roche, Mannheim, Germany) after another 24 hours of incubation.
# [1] = system: CD34^+ human hematopoietic progenitor cells; assay: cAMP measurement in CD34+ human hematopoietic progenitor cells; format: cell-based; settings: AVP 10^−10 M vs non-stimulated cells
# From the text: For cAMP measurements in CD34^+ human hematopoietic progenitor cells derived from two donors. The cAMP femto 2 kit (Cat#62AM5PEB, Cisbio) was used according to manufacturers instructions. The measurements were done on a Wallac Victor2 1420 multilabel counter (Perkin Elmer).
smiles,measurement,setting,value
"NC(=O)CC[C@@H]1NC(=O)[C@H](Cc2ccccc2)NC(=O)[C@H](Cc2ccc(O)cc2)NC(=O)[C@@H](N)CSSC[C@@H](C(=O)N2CCC[C@H]2C(=O)N[C@@H](CCCN=C(N)N)C(=O)NCC(N)=O)NC(=O)[C@H](CC(N)=O)NC1=O [AVP, [Arg8]-Vasopressin]",nuclear translocation of β-catenin,β-catenin,drives nuclear translocation of β-catenin; also recorded: had this effect
same,corrected reticulocyte numbers,C57BL6 male mice; 2 days post hemorrhage,significant increase; also recorded: had increased
same,hematocrit,C57BL6 male mice; 2 days post hemorrhage,significant increase
same,hematocrit,C57BL6 male mice; 4 days post hemorrhage,significantly higher hematocrit
same,number of highly fluorescent (high intensity) reticulocytes,"C57BL6 male mice; anemia models, FACS with thiazol orange",significantly increased
same,hematocrits,C57BL6 male mice; between days 2 and 4 after removal of 25% of blood volume,also increased
same,recovery times,"C57BL6 male mice; hemorrhage, FIG. 9D",significantly improved recovery times
same,increase in hematocrit compared to PBS,mice; AVP 100 μg/kg i.p. just after hemorrhage,only statistically significant at 12 and 24 hours; also recorded: significant increase in hematocrit 12 hours following the insult
same,differences in hematocrit between EPO and AVP,mice; after hemorrhage,"significant at 6, 12 and 24 hours and disappeared 5 days after hemorrhage"
same,proliferation (BrdU) of human CD34+ cells / HSPCs,human CD34^+ cells,induced proliferation; also recorded: significantly increased the proliferation
same,cAMP in human CD34+ progenitors,[1],moderate increase in cAMP
